In ChEMBL document CHEMBL4680175, “Sulfonamide-based ring-fused analogues for CAN508 as novel carbonic anhydrase inhibitors endowed with antitumor activity: Design, synthesis, and in vitro biological evaluation” (Eur J Med Chem, 2020):

Key:
Carbonic anhydrase 1 = Carbonic anhydrase 1 (Homo sapiens, UniProt P00915); experiment: Inhibition of recombinant human carbonic anhydrase 1 preincubated with enzyme for 15 mins by phenol red dye based stopped flow CO2 hydrase assay
Carbonic anhydrase 2 = Carbonic anhydrase 2 (Homo sapiens, UniProt P00918); experiment: Inhibition of recombinant human carbonic anhydrase 2 preincubated with enzyme for 15 mins by phenol red dye based stopped flow CO2 hydrase assay
Carbonic anhydrase 9 = Carbonic anhydrase 9 (Homo sapiens, UniProt Q16790); experiment: Inhibition of recombinant human carbonic anhydrase 9 preincubated with enzyme for 15 mins by phenol red dye based stopped flow CO2 hydrase assay
[1] = target: Cyclin-dependent kinase 2/cyclin E1 (Homo sapiens, UniProt P24941); experiment: Inhibition of CDK2/cyclin E (unknown origin) expressed in baculovirus infected Sf21 insect cells using histone H1 as substrate in presence of [gamma33P]ATP
CDK9/cyclin T1 = CDK9/cyclin T1 (Homo sapiens, UniProt P50750); experiment: Inhibition of human full-length N-terminal GST/His6-tagged CDK9 (1 to 372 residues)/His6-tagged Cyclin-T1 (1 to 726 residues) expressed in sf9 cells using (YSPTSPS)2KK peptide as substrate in presence of [gamma33P]ATP
CDK9/cyclin T1, sequence (O60563 whole entry, the tested form may be a part): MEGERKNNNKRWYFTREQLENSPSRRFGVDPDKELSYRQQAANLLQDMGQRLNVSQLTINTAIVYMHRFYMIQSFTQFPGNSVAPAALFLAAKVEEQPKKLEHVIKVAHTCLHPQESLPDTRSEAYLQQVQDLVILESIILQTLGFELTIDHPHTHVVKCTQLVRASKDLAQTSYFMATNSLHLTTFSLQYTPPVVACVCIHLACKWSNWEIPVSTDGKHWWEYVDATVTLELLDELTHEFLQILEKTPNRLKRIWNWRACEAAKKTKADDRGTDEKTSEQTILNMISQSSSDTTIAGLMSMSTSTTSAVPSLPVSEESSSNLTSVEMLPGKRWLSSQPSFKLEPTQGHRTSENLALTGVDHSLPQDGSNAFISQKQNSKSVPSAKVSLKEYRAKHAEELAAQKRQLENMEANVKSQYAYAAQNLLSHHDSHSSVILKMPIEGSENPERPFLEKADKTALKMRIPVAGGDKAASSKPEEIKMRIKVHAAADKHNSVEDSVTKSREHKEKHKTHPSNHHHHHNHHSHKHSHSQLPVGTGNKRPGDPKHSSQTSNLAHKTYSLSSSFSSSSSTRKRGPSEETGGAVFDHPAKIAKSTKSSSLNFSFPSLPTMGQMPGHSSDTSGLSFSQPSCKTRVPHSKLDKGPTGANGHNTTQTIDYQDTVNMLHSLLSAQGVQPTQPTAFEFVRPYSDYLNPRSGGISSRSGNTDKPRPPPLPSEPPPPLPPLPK
CDK9/cyclin T1, sequence (P50750 whole entry, the tested form may be a part): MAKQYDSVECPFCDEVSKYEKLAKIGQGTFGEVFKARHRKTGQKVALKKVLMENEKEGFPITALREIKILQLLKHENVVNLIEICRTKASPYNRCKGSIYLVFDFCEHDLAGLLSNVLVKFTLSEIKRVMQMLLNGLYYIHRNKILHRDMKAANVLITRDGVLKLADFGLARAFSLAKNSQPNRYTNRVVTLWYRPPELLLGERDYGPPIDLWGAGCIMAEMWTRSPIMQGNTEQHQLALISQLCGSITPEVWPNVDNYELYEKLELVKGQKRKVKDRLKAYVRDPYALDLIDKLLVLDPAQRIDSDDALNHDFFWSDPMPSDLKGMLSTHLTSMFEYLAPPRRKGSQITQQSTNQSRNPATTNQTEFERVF

Carbonic anhydrase 12 = Carbonic anhydrase 12 (Homo sapiens, UniProt O43570); experiment: Inhibition of recombinant human carbonic anhydrase 12 preincubated with enzyme for 15 mins by phenol red dye based stopped flow CO2 hydrase assay
Carbonic anhydrase 12, sequence (O43570 whole entry): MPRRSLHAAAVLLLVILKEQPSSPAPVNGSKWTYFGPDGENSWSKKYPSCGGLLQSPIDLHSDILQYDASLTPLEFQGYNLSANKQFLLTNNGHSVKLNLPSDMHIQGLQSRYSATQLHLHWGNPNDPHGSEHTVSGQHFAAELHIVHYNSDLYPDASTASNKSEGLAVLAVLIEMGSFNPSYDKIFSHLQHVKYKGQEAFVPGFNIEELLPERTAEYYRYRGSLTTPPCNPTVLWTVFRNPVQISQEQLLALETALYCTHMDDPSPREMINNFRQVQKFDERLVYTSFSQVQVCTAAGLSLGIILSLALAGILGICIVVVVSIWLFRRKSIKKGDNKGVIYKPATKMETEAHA

Carbonic anhydrase 1, sequence (P00915 whole entry): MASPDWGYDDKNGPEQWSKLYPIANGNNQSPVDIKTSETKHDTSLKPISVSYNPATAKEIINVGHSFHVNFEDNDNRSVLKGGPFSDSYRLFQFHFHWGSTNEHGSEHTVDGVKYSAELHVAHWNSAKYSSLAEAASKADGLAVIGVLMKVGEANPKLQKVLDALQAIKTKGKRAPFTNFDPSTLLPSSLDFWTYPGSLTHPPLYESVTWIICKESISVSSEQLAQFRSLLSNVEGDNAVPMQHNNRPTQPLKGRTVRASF

Ki (Carbonic anhydrase 1) | Ki (Carbonic anhydrase 2) | Ki (Carbonic anhydrase 9) | IC50 [1] | IC50 (CDK9/cyclin T1) | Ki (Carbonic anhydrase 12) | SMILES
768 nM | 38.7 nM | 65 nM | 8000 nM | > 12500 nM | 54.3 nM | Nc1nn2c(-c3ccc(Br)cc3)ccnc2c1/N=N/c1ccc(S(N)(=O)=O)cc1
2120 nM | 35.6 nM | 67.6 nM | > 12500 nM | > 12500 nM | 14.4 nM | Nc1nn2c(-c3ccc([N+](=O)[O-])cc3)ccnc2c1/N=N/c1ccc(S(N)(=O)=O)cc1
544 nM | 23.4 nM | 56.3 nM | 6400 nM | > 12500 nM | 44.3 nM | Nc1nn2c(-c3ccc(Cl)cc3)ccnc2c1/N=N/c1ccc(S(N)(=O)=O)cc1
